Test results published in patent US11926645B2, “Compounds and methods for treatment of viral infections” (priority 2020, dated 2024).
pEC50: −log10 of the molar value. Read-outs that look alike come from different tables or passages of the source.

Key:
Format in all cases: cell-based
SARS-CoV-2-Nluc viruses = test: microbe, parasite or virus in culture
in vitro = details: human
Method: The cytotoxicity of compounds was determined in A549-hACE2 cells in the following manner. Compounds (200 nL) were spotted onto 384-well Grenier plates prior to seeding 5000 A549-hACE2 cells/well in a volume of 40 μL culture medium. The plates were incubated at 37° C. for 48 hours with 5% CO2. On day 2, 40 μL of CellTiter-Glo (Promega) was added and mixed 5 times.

RSV strain A2 = test: RSV antiviral assay (Hep2), EC50-Hep2/B1-384; details: human respiratory syncytial virus, HEp-2, 96 h; Hep2 cells, 4 days, Cell-Titer Glo
[1] = test system: RSV-Fluc (Respiratory Syncytial virus strain A2 containing the firefly luciferase reporter); test: microbe, parasite or virus in culture; details: human respiratory syncytial virus, 72 h, NHBE cells, three days
[2] = Severe acute respiratory syndrome coronavirus 2, 48 h; read-out: SARS-CoV2 EC50
[3] = Severe acute respiratory syndrome coronavirus 2, 48 h, read-out: SARS-CoV2 EC50

Row | SMILES | pEC50 (SARS-CoV-2-Nluc viruses; [2]) | CC50 at 48 h (in vitro) | pEC50 (RSV strain A2) | pEC50 [1] | CC50 (in vitro; 48 hours, CellTiter-Glo, read-out: A549-hACE2 CC50) | pEC50 (SARS-CoV-2-Nluc viruses; [3])
1 | N#C[C@@]1(c2ccc3c(N)ncnn23)O[C@H](COC(=O)C2CCCCCC2)[C@@H](O)[C@H]1O [Compound 29, ((2R,3S,4R,5R)-5-(4-aminopyrrolo[2,1-f][1,2,4]triazin-7-yl)-5-cyano-3,4-dihydroxytetrahydrofuran-2-yl)methyl cycloheptanecarboxylate] | 6.52 | 38 µM | 6.71 | 5.58 | – | –
2 | CCCCCCCC(=O)OC[C@H]1O[C@@](C#N)(c2ccc3c(N)ncnn23)[C@H](O)[C@@H]1O [Compound 20, ((2R,3S,4R,5R)-5-(4-aminopyrrolo[2,1-f][1,2,4]triazin-7-yl)-5-cyano-3,4-dihydroxytetrahydrofuran-2-yl)methyl octanoate] | 6.21 | > 10 µM | 6.57 | 6.08 | – | –
3 | N#C[C@@]1(c2ccc3c(N)ncnn23)O[C@H](COC(=O)[C@@H](N)Cc2ccccc2)[C@@H](O)[C@H]1O [Compound 10, ((2R,3S,4R,5R)-5-(4-aminopyrrolo[2,1-f][1,2,4]triazin-7-yl)-5-cyano-3,4-dihydroxytetrahydrofuran-2-yl)methyl L-phenylalaninate] | 5.66 | > 100 µM | 5.92 | – | – | –
4 | N#C[C@@]1(c2ccc3c(N)ncnn23)O[C@H](COC(=O)C2CCCC2)[C@@H](O)[C@H]1O [Compound 28, ((2R,3S,4R,5R)-5-(4-aminopyrrolo[2,1-f][1,2,4]triazin-7-yl)-5-cyano-3,4-dihydroxytetrahydrofuran-2-yl)methyl cyclopentanecarboxylate] | 6.37 | 40 µM | 6.57 | 5.75 | – | –
5 | CC(=O)OC[C@H]1O[C@@](C#N)(c2ccc3c(N)ncnn23)[C@H](O)[C@@H]1O [Compound 30, ((2R,3S,4R,5R)-5-(4-aminopyrrolo[2,1-f][1,2,4]triazin-7-yl)-5-cyano-3,4-dihydroxytetrahydrofuran-2-yl)methyl acetate] | 5.63 | > 50 µM | 6.19 | 5.62 | – | –
6 | N#C[C@@]1(c2ccc3c(N)ncnn23)O[C@H](COC(=O)Cc2ccccc2)[C@@H](O)[C@H]1O [Compound 22, ((2R,3S,4R,5R)-5-(4-aminopyrrolo[2,1-f][1,2,4]triazin-7-yl)-5-cyano-3,4-dihydroxytetrahydrofuran-2-yl)methyl 2-phenylacetate] | 6.07 | – | 6.66 | 6.10 | > 10 µM | –
7 | N#C[C@@]1(c2ccc3c(N)ncnn23)O[C@H](COC(=O)C2CC3(CCC3)C2)[C@@H](O)[C@H]1O [Compound 27, ((2R,3S,4R,5R)-5-(4-aminopyrrolo[2,1-f][1,2,4]triazin-7-yl)-5-cyano-3,4-dihydroxytetrahydrofuran-2-yl)methyl spiro[3.3]heptane-2-carboxylate] | 6.25 | > 10 µM | 6.61 | 5.83 | – | –
8 | CC(C)[C@H](N)C(=O)OC[C@H]1O[C@@](C#N)(c2ccc3c(N)ncnn23)[C@H](O)[C@@H]1O [Compound 8, ((2R,3S,4R,5R)-5-(4-aminopyrrolo[2,1-f][1,2,4]triazin-7-yl)-5-cyano-3,4-dihydroxytetrahydrofuran-2-yl)methyl L-valinate] | 5.57 | > 100 µM | 6.04 | < 5.30 | – | –
9 | CC(=O)OC[C@H]1O[C@@](C#N)(c2ccc3c(N)ncnn23)[C@H](OC(C)=O)[C@@H]1OC(C)=O [Compound 2, (2R,3R,4R,5R)-5-(acetoxymethyl)-2-(4-aminopyrrolo[2,1-f][1,2,4]triazin-7-yl)-2-cyanotetrahydrofuran-3,4-diyl diacetate] | 5.72 | > 50 µM | 6.27 | 6.54 | – | –
10 | CC(C)(N)C(=O)OC[C@H]1O[C@@](C#N)(c2ccc3c(N)ncnn23)[C@H](O)[C@@H]1O [Compound 7, ((2R,3S,4R,5R)-5-(4-aminopyrrolo[2,1-f][1,2,4]triazin-7-yl)-5-cyano-3,4-dihydroxytetrahydrofuran-2-yl)methyl 2-amino-2-methylpropanoate] | 5.51 | > 50 µM | 6.07 | – | – | –
11 | CCCCCC(=O)OC[C@H]1O[C@@](C#N)(c2ccc3c(N)ncnn23)[C@H](O)[C@@H]1O [Compound 31, ((2R,3S,4R,5R)-5-(4-aminopyrrolo[2,1-f][1,2,4]triazin-7-yl)-5-cyano-3,4-dihydroxytetrahydrofuran-2-yl)methyl hexanoate] | 6.49 | 24 µM | 6.70 | 5.56 | – | –
12 | CC(C)[C@H](N)C(=O)OC[C@H]1O[C@@](C#N)(c2ccc3c(N)ncnn23)[C@@H]2OC(c3ccccc3)O[C@@H]21 (stereo partly drawn) [Compound 6, ((3aR,4R,6R,6aR)-6-(4-aminopyrrolo[2,1-f][1,2,4]triazin-7-yl)-6-cyano-2-phenyltetrahydrofuro[3,4-d][1,3]dioxol-4-yl)methyl L-valinate] | < 5.00 | > 71.2 µM | 4.63 | – | – | –
13 | CCC(CC)C(=O)OC[C@H]1O[C@@](C#N)(c2ccc3c(N)ncnn23)[C@H](O)[C@@H]1O [Compound 19, ((2R,3S,4R,5R)-5-(4-aminopyrrolo[2,1-f][1,2,4]triazin-7-yl)-5-cyano-3,4-dihydroxytetrahydrofuran-2-yl)methyl 2-ethylbutanoate] | 5.84 | > 10 µM | 6.62 | 6.58 | – | –
14 | Cc1ccc(C(=O)OC[C@H]2O[C@@](C#N)(c3ccc4c(N)ncnn34)[C@H](O)[C@@H]2O)cc1 [Compound 23, ((2R,3S,4R,5R)-5-(4-aminopyrrolo[2,1-f][1,2,4]triazin-7-yl)-5-cyano-3,4-dihydroxytetrahydrofuran-2-yl)methyl 4-methylbenzoate] | 5.96 | > 10 µM | 6.71 | 6.60 | – | –
15 | CC(C)(C)CC(=O)OC[C@H]1O[C@@](C#N)(c2ccc3c(N)ncnn23)[C@H](O)[C@@H]1O [Compound 21, ((2R,3S,4R,5R)-5-(4-aminopyrrolo[2,1-f][1,2,4]triazin-7-yl)-5-cyano-3,4-dihydroxytetrahydrofuran-2-yl)methyl 3,3-dimethylbutanoate] | 4.94 | > 10 µM | 5.64 | 5.73 | – | –
16 | CC(C)C(=O)OC[C@H]1O[C@@](C#N)(c2ccc3c(N)ncnn23)[C@@H]2OC(c3ccccc3)O[C@@H]21 (stereo partly drawn) [Compound 5, ((3aR,4R,6R,6aR)-6-(4-aminopyrrolo[2,1-f][1,2,4]triazin-7-yl)-6-cyano-2-phenyltetrahydrofuro[3,4-d][1,3]dioxol-4-yl)methyl isobutyrate] | < 5.00 | > 100 µM | 4.88 | – | – | –
17 | CCCC(CCC)C(=O)OC[C@H]1O[C@@](C#N)(c2ccc3c(N)ncnn23)[C@H](O)[C@@H]1O [Compound 18, ((2R,3S,4R,5R)-5-(4-aminopyrrolo[2,1-f][1,2,4]triazin-7-yl)-5-cyano-3,4-dihydroxytetrahydrofuran-2-yl)methyl 2-propylpentanoate] | – | > 10 µM | 6.76 | 6.65 | – | 6.03
18 | N#C[C@@]1(c2ccc3c(N)ncnn23)O[C@H](COC(=O)C2CCCCC2)[C@@H](O)[C@H]1O [Compound 17, ((2R,3S,4R,5R)-5-(4-aminopyrrolo[2,1-f][1,2,4]triazin-7-yl)-5-cyano-3,4-dihydroxytetrahydrofuran-2-yl)methyl cyclohexanecarboxylate] | 6.10 | > 10 µM | 6.67 | 5.93 | – | –
19 | N#C[C@@]1(c2ccc3c(N)ncnn23)O[C@H](CO)[C@H]2OC(=O)O[C@H]21 [Compound 13, (3aR,4R,6R,6aR)-4-(4-aminopyrrolo[2,1-f][1,2,4]triazin-7-yl)-6-(hydroxymethyl)-2-oxotetrahydrofuro[3,4-d][1,3]dioxole-4-carbonitrile] | 5.89 | > 50 µM | 6.30 | – | – | –
20 | N#C[C@@]1(c2ccc3c(N)ncnn23)O[C@H](CO)[C@H]2OC(c3ccccc3)O[C@H]21 (stereo partly drawn) [Compound 4, (3aR,4R,6R,6aR)-4-(4-aminopyrrolo[2,1-f][1,2,4]triazin-7-yl)-6-(hydroxymethyl)-2-phenyltetrahydrofuro[3,4-d][1,3]dioxole-4-carbonitrile] | < 5.00 | > 100 µM | 4.58 | – | – | –
21 | CC(C)CC(=O)OC[C@H]1O[C@@](C#N)(c2ccc3c(N)ncnn23)[C@H](O)[C@@H]1O [Compound 16, ((2R,3S,4R,5R)-5-(4-aminopyrrolo[2,1-f][1,2,4]triazin-7-yl)-5-cyano-3,4-dihydroxytetrahydrofuran-2-yl)methyl 3-methylbutanoate] | – | > 10 µM | 6.66 | 6.24 | – | 5.91
22 | N#C[C@@]1(c2ccc3c(N)ncnn23)O[C@H](COC(=O)C[C@@H](N)Cc2ccccc2)[C@@H](O)[C@H]1O [Compound 14, ((2R,3S,4R,5R)-5-(4-aminopyrrolo[2,1-f][1,2,4]triazin-7-yl)-5-cyano-3,4-dihydroxytetrahydrofuran-2-yl)methyl (S)-3-amino-4-phenylbutanoate] | 5.57 | > 50 µM | 6.08 | – | – | –
23 | CC(C)[C@@H](N)C(=O)OC[C@H]1O[C@@](C#N)(c2ccc3c(N)ncnn23)[C@H](O)[C@@H]1O [Compound 9, ((2R,3S,4R,5R)-5-(4-aminopyrrolo[2,1-f][1,2,4]triazin-7-yl)-5-cyano-3,4-dihydroxytetrahydrofuran-2-yl)methyl D-valinate] | 5.62 | > 50 µM | 6.10 | – | – | –
